This assay has as its system V. harveyi MM32 (LuxS-), AI-2-induced luminescence, 5 h. The assay is described as follows: inhibitors of AI-2-induced luminescence in V. harveyi MM32, dose response, mechanism study for V. harveyi quorum sensing inhibitors, strain MM32 LuxS-null, dry powder, set 2 (AID 493119).

Values joined by “and” are separate entries in the source; they are usually repeats but may differ in a detail not shown here. Equal entries are not always repeated.

Take `Cn1cnc(S(=O)(=O)Nc2ccc(OC(F)(F)F)cc2)c1`: the AC50 is 1880 nM and 2280 nM.
Consider `Cc1cccc(NC(=O)c2ccc(Oc3ccccc3)cc2)n1`, for which the AC50 is 6550 nM.
Under `O=C1C=C/C(=C/Br)O1` stands 3970 nM; under `COc1cc(NC(=O)CN2C(=O)NC(c3ccccc3)(c3ccccc3)C2=O)cc(OC)c1`, 1170 nM and 1130 nM; under `CCc1ccc(S(=O)(=O)Nc2ccc(Br)cn2)cc1`, 2000 nM.
In the case of `C=Cn1c(C(=O)O)ccc1-c1ccc(CC)cc1`, the AC50 was 1720 nM and 1570 nM.
The value for `Cc1cccc(NS(=O)(=O)c2ccc(Oc3ccccc3)cc2)n1` was 1290 nM and 1610 nM.

The values are drawn from PubChem BioAssay AID493119 (Broad Institute, 2011).
